The source of these data is paper PMC12040169 (PLOS Biology, 2025).

As a reminder, the viability is a read-out of living cells in per cent, often relative to untreated cells.

The first data set is described as follows: in vitro. Conditions: human, hela cells, % viability.
`Cc1ccc(S(=O)(=O)Nc2ccc(N3CCCNCC3)cc2N(C)S(C)(=O)=O)cc1` [CBK000017C]: the viability at 28.5 h, 10 µM is 113%.

`O=S(=O)(Nc1ccc(N2CCNCC2)nc1)c1ccc(F)cc1F` [CBK000022C]: the viability at 28.5 h, 10 µM was 110%.

As for `CN(CCOc1ccccc1)c1nccnc1N1CCNCC1` [CBK000035F], the viability at 28.5 h, 10 µM stood at 109%.

`CC1CN(C(=O)OC(C)(C)C)CCN1` (centres unmarked) [CBK000069C]: the viability at 28.5 h, 10 µM was found to be 100%.

As for `Oc1cccc2c1OCO2` [CBK000070], the viability at 28.5 h, 10 µM was found to be 85.8%.

For the compound `CCOC(=O)Cc1csc(NS(=O)(=O)/C=C/c2ccccc2)n1` [CBK000072], the viability at 28.5 h, 10 µM was 101%.

`c1ccc(-c2nc3cc4ccccc4cc3[nH]2)nc1` [CBK000130]: the viability at 28.5 h, 10 µM came out at 82.5%.

On to `Cc1oc(-c2ccccc2)nc1CCOc1ccc(NC(=O)c2ccc(Cl)cc2Cl)c(C(=O)O)c1` [CBK000168D], for which the viability at 28.5 h, 10 µM came out at 88.6%.

`O=C(Nc1ccc(Cl)cc1C(=O)O)c1ccccc1Cl` [CBK000171]: the viability at 28.5 h, 10 µM is 91.4%.

On to `Cc1cc(NC(=O)c2ccccc2O)n(C)n1` [CBK000190], for which the viability at 28.5 h, 10 µM was 107%.

Regarding `O=C(Nc1ccc2[nH]ncc2c1)c1ccccc1Cl` [CBK000191], the viability at 28.5 h, 10 µM was found to be 87.8%.

On to `CC(C)(C)OC(=O)n1cnc(CC#N)c1` [CBK000202], for which the viability at 28.5 h, 10 µM was 83.1%.

Turning to `CCCNc1nc(O)cc(C(F)(F)F)n1` [CBK000214], the viability at 28.5 h, 10 µM stood at 95.8%.

In the case of `Cc1nn(C)c(Oc2ccccc2OCc2ccccc2)c1[N+](=O)[O-]` [CBK000281], the viability at 28.5 h, 10 µM was 102%.

In the case of `COc1ccc(S(=O)(=O)n2ccc3cc(N4CCN(C)CC4)ccc32)cc1OC` [CBK000286C], the viability at 28.5 h, 10 µM came to 79.6%.

In the case of `Cc1nn(C)c(Oc2cccc(C(F)(F)F)c2)c1C(=O)O` [CBK000324], the viability at 28.5 h, 10 µM is 102%.

As for `COc1cccc2c3c([nH]c12)CCCC3` [CBK000331], the viability at 28.5 h, 10 µM came out at 95.8%.

As to `Cn1cc(C(=O)O)c(NC(=O)c2ccccc2Cl)n1` [CBK000353], the viability at 28.5 h, 10 µM was found to be 95.8%.

As for `O[C@H](CNCc1ccccc1)COc1cccc2c1C1CCC2CC1` [CBK000370], the viability at 28.5 h, 10 µM came to 92.6%.

With `CC(=O)Nc1ccc(S(=O)(=O)Nc2ccnc(N3CCN4CCCC4C3)n2)cc1` (centres unmarked) [CBK000380C], the viability at 28.5 h, 10 µM was 91.1%.

With `CC(C)(C)OC(=O)c1cc(C(=O)O)ccc1O` [CBK000394], the viability at 28.5 h, 10 µM was 90%.

Turning to `O=C1Nc2ccc(-c3ccsc3)cc2C1(O)O` [CBK000421], the viability at 28.5 h, 10 µM was determined as 84.5%.

For `CCCN(C(C)=O)c1nc(O)cc(C(F)(F)F)n1` [CBK000427], the viability at 28.5 h, 10 µM was determined as 85.5%.

With `COc1ccc(CNC(=O)N(CCc2ccccc2)CC(C)(C)CN)cc1` [CBK000463C], the viability at 28.5 h, 10 µM stood at 119%.

As for `N[C@H]1CC[C@H](N(CCc2ccccc2)C(=O)N[C@@H]2C[C@H]2c2ccccc2)CC1` [CBK000474C], the viability at 28.5 h, 10 µM turned out to be 110%.

For `NC1CCC(N(CCc2ccccc2)C(=O)Nc2ccc3c(c2)OCO3)CC1` (centres unmarked) [CBK000480C], the viability at 28.5 h, 10 µM was 83.1%.

For `CC(C)(CN)CN(Cc1cccc2ccccc12)C(=O)NC1C[C@H]1c1ccccc1` (some centres unmarked) [CBK000490C], the viability at 28.5 h, 10 µM worked out at 94.7%.

Turning to `COc1cccc(OCCO)c1` [CBK000514], the viability at 28.5 h, 10 µM worked out at 93.1%.

In the case of `Cc1cc(Cl)cc(Cl)c1S(=O)(=O)Nc1nc(CC(=O)O)cs1` [CBK000573], the viability at 28.5 h, 10 µM was 92%.

For `Cc1cc(OC(F)(F)F)ccc1S(=O)(=O)Nc1nc(CC(=O)O)cs1` [CBK000575], the viability at 28.5 h, 10 µM was determined as 87.8%.

As to `COc1cc2c(cc1OC)CN(C(=O)N(CCN)CCC(C)c1ccccc1)CC2` (centres unmarked) [CBK000612C], the viability at 28.5 h, 10 µM is 80.9%.

Regarding `OCCOc1ccc(Cl)c2cccnc12` [CBK000620], the viability at 28.5 h, 10 µM amounted to 78.1%.

As for `O=[N+]([O-])c1ccc(OCCOc2nccnc2N2CCNCC2)c2ncccc12` [CBK000623C], the viability at 28.5 h, 10 µM was 94.9%.

Take `O=[N+]([O-])c1ccc(OCCO)cc1` [CBK000628]: the viability at 28.5 h, 10 µM is 84.8%.

For `NC(=O)c1ccccc1OCCO` [CBK000640], the viability at 28.5 h, 10 µM was found to be 87.8%.

With `CN(C)CCOc1ncccc1OCCO` [CBK000655F], the viability at 28.5 h, 10 µM turned out to be 98.2%.

On to `Cc1ccc(S(=O)(=O)N(C)c2ccnc(N3CCN(C)CC3)n2)cc1` [CBK000671], for which the viability at 28.5 h, 10 µM is 99.4%.

On to `N=C(N)NCC(=O)N(CCCc1cc(C(F)(F)F)cc(C(F)(F)F)c1)c1ccc2c(c1)OCO2` [CBK000702T], for which the viability at 28.5 h, 10 µM is 80.1%.

As to `O=C(c1ccccc1)c1ccc(OCCO)cc1` [CBK000725], the viability at 28.5 h, 10 µM is 94%.

For the compound `COc1ccc(-c2csc(NS(=O)(=O)c3c(C)cc(Cl)cc3Cl)n2)cc1` [CBK000814], the viability at 28.5 h, 10 µM was determined as 104%.

On to `CCOC(=O)Cc1csc(NS(=O)(=O)c2cc(Cl)c(Cl)s2)n1` [CBK000847], for which the viability at 28.5 h, 10 µM came to 98%.

In the case of `CCOC(=O)Cc1csc(NS(=O)(=O)c2ccc(OC(F)(F)F)cc2)n1` [CBK000852], the viability at 28.5 h, 10 µM stood at 110%.

For the compound `Cc1n[nH]c(=O)c2noc(C)c12` [CBK000857], the viability at 28.5 h, 10 µM came to 108%.

For the compound `Cc1cc(Cl)cc(Cl)c1S(=O)(=O)Nc1nc2c(s1)CN(C(=O)N1CCOCC1)CC2` [CBK000931], the viability at 28.5 h, 10 µM was found to be 92.6%.

For the compound `COc1ccccc1OCCO` [CBK000949], the viability at 28.5 h, 10 µM was 98.3%.

For the compound `Cc1c(Cl)cccc1S(=O)(=O)Nc1nc(-c2cccc([N+](=O)[O-])c2)cs1` [CBK000994], the viability at 28.5 h, 10 µM worked out at 107%.

On to `COc1ccccc1N(CCCc1cc(C(F)(F)F)cc(C(F)(F)F)c1)C(=O)C(N)C(C)C` (centres unmarked) [CBK001004T], for which the viability at 28.5 h, 10 µM was 98.5%.

Turning to `CCc1csc(C(=Cc2cccs2)C(N)=O)n1` [CBK001007], the viability at 28.5 h, 10 µM was 90.2%.

In the case of `CCC(CN(C(=O)C(N)CCCCN)c1ccc2c(c1)OCO2)c1ccccc1` (centres unmarked) [CBK001083T], the viability at 28.5 h, 10 µM amounted to 96.4%.

`N=C(N)NCC(=O)N(CCc1cc(C(F)(F)F)cc(C(F)(F)F)c1)c1cccc2ccccc12` [CBK001122T]: the viability at 28.5 h, 10 µM amounted to 105%.

As for `CC(C)(C)c1csc(C(=Cc2ccc(C#N)cc2)C(N)=O)n1` [CBK001154], the viability at 28.5 h, 10 µM amounted to 88.7%.

As to `COc1ccc(CSc2nc(O)cc(C(F)(F)F)n2)cc1` [CBK001217], the viability at 28.5 h, 10 µM amounted to 85%.

On to `COc1ccc(Cl)cc1NC(=O)CC(C)(C)CC(=O)O` [CBK001236], for which the viability at 28.5 h, 10 µM was 90.4%.

On to `Cc1noc(C)c1S(=O)(=O)Nc1csc(C(F)(F)F)c1-c1ccccc1` [CBK001237], for which the viability at 28.5 h, 10 µM came to 91%.

For `COc1ccccc1NS(=O)(=O)c1ccc(N2CCN3CCCC3C2)c(N)c1` (centres unmarked) [CBK001266], the viability at 28.5 h, 10 µM was 92.6%.

Turning to `Cc1n[nH]c(=O)c2c(C)noc12` [CBK001281], the viability at 28.5 h, 10 µM came to 101%.

As to `CCCCOc1ccc(S(=O)(=O)n2ccc3cc(N4CCNCC4)ccc32)cc1` [CBK001315C], the viability at 28.5 h, 10 µM worked out at 37.9%.

Take `COc1cccc2cc([C@H]3CN(C(=O)C(C)(C)N)C[C@@H]3C(=O)N3CCC4(CC3)CN(S(C)(=O)=O)c3ccccc34)oc12` [CBK001347C]: the viability at 28.5 h, 10 µM turned out to be 117%.

As to `Cc1ccc(OCCn2ccnc(N3CCNCC3)c2=O)c([N+](=O)[O-])n1` [CBK001381C], the viability at 28.5 h, 10 µM is 88.1%.

Take `O=S(=O)(c1ccc(-c2ccccc2)cc1)n1ccc2cc(N3CCN(Cc4ccccc4)CC3)ccc21` [CBK001388C]: the viability at 28.5 h, 10 µM was determined as 115%.

Turning to `CN(C)Cc1ncccc1OCCO` [CBK001411C], the viability at 28.5 h, 10 µM stood at 111%.

In the case of `OCCOc1ncnc2ccccc12` [CBK001412], the viability at 28.5 h, 10 µM is 107%.

`O=C1CCc2cccc(OCCO)c21` [CBK001442]: the viability at 28.5 h, 10 µM turned out to be 92.7%.

Turning to `Nc1cc(S(=O)(=O)Nc2ccc(C(F)(F)F)cc2)ccc1N1CCCNCC1` [CBK001518C], the viability at 28.5 h, 10 µM worked out at 87.9%.

Take `CCOC(=O)[C@H]1CN(C(=O)C(C)(C)NC(=O)OC(C)(C)C)C[C@@H]1c1cc2cc(C)ccc2o1` [CBK001599]: the viability at 28.5 h, 10 µM was found to be 91.1%.

Consider `Cc1ccc2oc([C@H]3CN(C(=O)C(C)(C)NC(=O)OC(C)(C)C)C[C@@H]3C(=O)O)cc2c1` [CBK001600], for which the viability at 28.5 h, 10 µM amounted to 86.1%.

On to `CCOC(=O)C1CN(C(=O)N(CCN)Cc2ccc(Cl)cc2)CC1c1ccccc1` (centres unmarked) [CBK001682C], for which the viability at 28.5 h, 10 µM was 97.8%.

For `CS(=O)(=O)N1CC2(CCN(C(=O)N(CCN)CCc3ccc(Cl)cc3)CC2)c2ccccc21` [CBK001687C], the viability at 28.5 h, 10 µM was determined as 111%.

As to `CCCCCNC(=O)C(Cc1ccc(O)c(C(=O)OCc2ccccc2)c1)NC(=O)OC(C)(C)C` (centres unmarked) [CBK001708], the viability at 28.5 h, 10 µM was determined as 96.2%.

Turning to `CCCc1cc(C(=O)NCCCN)cc(CCC)c1OCc1ccccc1` [CBK001736C], the viability at 28.5 h, 10 µM came to 114%.

Regarding `c1cncc(CNCc2ccoc2)c1` [CBK001744C], the viability at 28.5 h, 10 µM was 88.1%.

Regarding `OC/C=C/c1cnc2ccccc2c1` [CBK001749], the viability at 28.5 h, 10 µM stood at 119%.

With `CC(C)(C)OC(=O)N1CCC(Oc2cncc(Cl)n2)CC1` [CBK001762], the viability at 28.5 h, 10 µM is 98%.

In the case of `OCCOc1ccccc1N1CCOCC1` [CBK001767C], the viability at 28.5 h, 10 µM was 116%.

On to `Cc1ccc(OCCO)cn1` [CBK001786], for which the viability at 28.5 h, 10 µM was 91%.

On to `OCCNc1nc(O)cc(C(F)(F)F)n1` [CBK001804], for which the viability at 28.5 h, 10 µM amounted to 99.5%.

`COC1C(O)=CC(=O)OC1(CCc1ccco1)CCc1ccco1` (centres unmarked) [CBK001858]: the viability at 28.5 h, 10 µM came to 86.7%.

For `CC(C)(C)OC(=O)N1CCN(c2nccnc2OCCO)CC1` [CBK001869], the viability at 28.5 h, 10 µM is 119%.

Consider `O=S(=O)(c1ccc2ccccc2c1)c1cnns1` [CBK001887], for which the viability at 28.5 h, 10 µM stood at 97.7%.

With `CC(C)(C)CCNCCN1CCOCC1` [CBK001895], the viability at 28.5 h, 10 µM was determined as 92.2%.

In the case of `COc1ccc(-n2cnnn2)cc1` [CBK001946], the viability at 28.5 h, 10 µM stood at 99%.

As to `CNC(=O)c1oc(-c2ccc(OC)cc2)c(-c2ccc(OC)cc2)c1C(=O)NC` [CBK001956], the viability at 28.5 h, 10 µM was 90.9%.

The same data set, now with this note: human, hela cells, % viability, bulk resorufin, single well.
Consider `Clc1cccc(N2CCNCC2)n1` [CBK001379], for which the viability at 28.5 h, 10 µM was found to be 95.3%.
